Key:
5-lipoxygenase = target: T1, 5-lipoxygenase (Rattus norvegicus, UniProt P12527); assay: Arachidonate 5-lipoxygenase inhibition in Rat Basophilic Leukemia Cells Supernatant; format: biochemical; design: dose or concentration left out as unconfirmed; conditions: Column A; 5-HPETE and LTB4 formation; read-out: 5-lipoxygenase inhibition in RBL cells supernatant, % inhibition
T1 construct: The supernatant, aliquoted and stored at -70° C., was used as the source of 5-lipoxygenase activity; endogenous in cells; host or cells: Rat basophilic leukemia (RBL) cells, 10,000×g supernatant of the sonicate (crude, not purified)
T1 sequence (P12527 1-673): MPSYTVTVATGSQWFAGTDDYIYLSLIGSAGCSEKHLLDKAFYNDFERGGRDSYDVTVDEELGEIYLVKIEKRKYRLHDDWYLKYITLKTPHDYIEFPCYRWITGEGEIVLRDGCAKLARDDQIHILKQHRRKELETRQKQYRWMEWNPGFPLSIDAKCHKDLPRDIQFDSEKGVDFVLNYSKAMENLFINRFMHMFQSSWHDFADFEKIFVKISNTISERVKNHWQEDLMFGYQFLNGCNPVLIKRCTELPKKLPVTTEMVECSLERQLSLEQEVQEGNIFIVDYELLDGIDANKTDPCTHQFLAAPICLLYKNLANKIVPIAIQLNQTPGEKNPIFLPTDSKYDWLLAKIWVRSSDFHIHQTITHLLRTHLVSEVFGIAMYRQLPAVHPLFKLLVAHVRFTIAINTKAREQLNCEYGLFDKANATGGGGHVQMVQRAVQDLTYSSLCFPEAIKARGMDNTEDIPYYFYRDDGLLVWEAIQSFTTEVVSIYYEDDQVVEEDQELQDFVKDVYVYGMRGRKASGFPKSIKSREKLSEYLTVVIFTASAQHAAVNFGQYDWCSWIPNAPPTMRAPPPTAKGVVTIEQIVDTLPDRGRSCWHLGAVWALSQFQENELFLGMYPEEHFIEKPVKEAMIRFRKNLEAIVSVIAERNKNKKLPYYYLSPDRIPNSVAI

[1] = test system: Dextran-induced edema formation in the ears of mice; assay: Inhibition of Dextran-induced edema formation in the ears of mice; format: in vivo, male Swiss mice; conditions: Mus musculus, po, Column B, at 10 mg/kg body weight, 1 h before dextran, read-out: inhibition of Dextran-induced blueing of the ears of mice, % inhibition
From the text: Inhibition of Dextran-induced edema formation in the ears of mice.
Intravenous injection of Dextran T500® (Pharmacia) and pontamine sky-blue dye into mice results in increased vascular permeability and edema formation, characterized by an intense blueing of the ears. Determination of the amount of extravasated dye is presumed to yield a quantitative measure of the 5-lipoxygenase inhibiting activity of the test compounds (Drug. Dev. Res. 8, 213-218, 1986). Unfasted male Swiss mice weighing 24-26 g were used in the experiments which were performed between 13.00 pm and 17.00 pm at an ambient temperature of 22±1° C. The mice were treated orally with a test compound of formula (I) dissolved in a volume of […] of either polyethyleneglycol (PEG 200) or hydroxypropyl cyclodextrine at doses varying between 1.25 and 40 mg per kg bodyweight. In control experiments the mice were administered an identical amount of solvent alone. One hour after treatment there was injected intravenously an isotonic saline solution containing 60 mg/ml Dextran T500® and 13 mg/ml pontamine sky-blue dye in a volume of 0.1 ml per 10 g bodyweight. One hour and forty-five minutes later the animals were sacrificed by ether and their ears were removed. Extraction and quantification of the extravasated dye were performed as described (Drug Dev. Res. 8, 213-218, 1986). The calculated percentage of inhibition of ear blueing upon administration of a compound of formula (I) at a dose of 10 mg/kg bodyweight is shown in the second column of table 12.

## Cc1cc(N2CCN(c3ccc(-n4c(C)nn(C(C)C(O)c5ccc(Br)cc5)c4=O)cc3)CC2)cc(C)c1O (centres unmarked) [Compound 7.54, 2-[2-(4-bromophenyl)-2-hydroxy-1-methylethyl]-2,4-dihydro-4-[4-[4-(4-hydroxy-3,5-dimethylphenyl)-1-piperazinyl]phenyl]-5-methyl-3H-1,2,4-triazol-3-one]
5-lipoxygenase
  inhibition: 79%
[1]
  inhibition in vivo at 10 mg/kg: 76%

## CC(C(O)c1ccc(Br)cc1)n1ncn(-c2ccc(N3CCN(c4ccc(O)cc4)CC3)cc2)c1=O (centres unmarked) [Compound 7.35]
5-lipoxygenase
  inhibition: 100%
[1]
  inhibition in vivo at 10 mg/kg: 79%

## CN1C(=S)N(c2ccc(N3CCN(c4ccc(O)cc4)CC3)cc2)C(=O)C1(C)C [Compound 5.12]
5-lipoxygenase
  inhibition: 81%
[1]
  inhibition in vivo at 10 mg/kg: 88%

## CCC(C)N1C(=O)N(c2ccc(N3CCN(c4ccc(O)cc4)CC3)cc2)C(C)(C)C1=O (centres unmarked) [Compound 6.12]
5-lipoxygenase
  inhibition: 90%
[1]
  inhibition in vivo at 10 mg/kg: 53%

From patent publication US4931444A, “5-lipoxygenase inhibiting 4-(4-phenyl-1-piperazinyl)phenols” (Janssen Pharmaceutica N.V., priority 1989, dated 1990)
